From ChEMBL document CHEMBL1149799, “Bioactive peroxides as potential therapeutic agents” (Eur J Med Chem, 2008)
Values after ≈ are worked out from the molar mass of the structure shown.

system: HT-29; experiment: Cytotoxicity against human HT29 cells; format: functional, cell-based; details: Homo sapiens, HT-29; read-out: ED50 (the source's name)

In order of rising EC50:
1. C=C1CC[C@H](OO)C(=C)CCC2=C(C(C)C)C(=O)C[C@]2(C)CC1=O  0.31 µg/mL (≈ 0.932 µM)
2. C=CC(CC[C@@H](C)[C@H]1CC[C@H]2[C@@H]3C[C@@H](O)C4=CC(=O)CC[C@]4(C)[C@H]3CC[C@]12C)(OO)C(C)C (stereo partly specified)  0.43 µg/mL (≈ 0.937 µM)
3. C=C(C)C(CC[C@@H](C)[C@H]1CC[C@H]2[C@@H]3C[C@@H](O)C4=CC(=O)CC[C@]4(C)[C@H]3CC[C@]12C)OO (stereo partly specified)  0.47 µg/mL (≈ 1.09 µM)
4. C[C@H](C/C=C/C(C)(C)OO)[C@H]1CC[C@H]2[C@@H]3CC(=O)C4=CC(=O)CC[C@]4(C)[C@H]3CC[C@]12C  1.48 µg/mL (≈ 3.45 µM)
5. C=C(C)C(CC[C@@H](C)[C@H]1CC[C@H]2[C@@H]3CC(=O)C4=CC(=O)CC[C@]4(C)[C@H]3CC[C@]12C)OO (stereo partly specified)  1.48 µg/mL (≈ 3.45 µM)

system: L1210; experiment: Cytotoxicity against mouse L1210 cells; format: functional, cell-based; details: not given

With `C/C1=C\CC[C@]2(C)O[C@H]([C@@H]3OC(=O)[C@]4(OO)CCO[C@@H]2C[C@H]34)[C@H](C)CCC1` [PLANAXOOL] the IC100 was 2.4 µg/mL.

same assay, conditions: Mus musculus, L1210

In order of rising IC50:
1. CC(CC/C=C/CC/C=C/c1ccccc1)C[C@@]1(C)C[C@@](C)(CC(=O)O)OO1 (stereo partly specified) [EPIPLAKINIC ACID D]  0.017 µg/mL (≈ 0.044 µM)
2. CC(CC/C=C/CC/C=C/c1ccccc1)C[C@]1(C)C[C@@](C)(CC(=O)O)OO1 (stereo partly specified) [PLAKINIC ACID D]  0.026 µg/mL (≈ 0.0673 µM)
3. COC(=O)C[C@@]1(C)C[C@@](C)(CC(C)CCCC/C=C/CC/C=C\c2ccccc2)OO1 (stereo partly specified)  0.29 µg/mL (≈ 0.677 µM)

system: A549; experiment: Cytotoxicity against human A549 cells; format: functional, cell-based; details: Homo sapiens, A549

In order of falling IC50:
1. COC(=O)C[C@@]1(C)C[C@](C)(CC(C)CCCCCCCCc2ccccc2)OO1 (stereo partly specified) [EPIPLAKINIC ACID E]  2.5 µg/mL (≈ 6.18 µM)
2. COc1cccc2c1C(=O)c1c(O)c3c(c(O)c1C2=O)C[C@@](O)(C(=O)CO)C[C@@H]3O[C@H]1C[C@H](N)[C@H](O)[C@H](C)O1 [DOXORUBICIN]  0.002 µg/mL (≈ 0.00368 µM)

same assay, conditions: Homo sapiens, A549; read-out: ED50 (the source's name)

In order of falling EC50:
1. C[C@H](C/C=C/C(C)(C)OO)[C@H]1CC[C@H]2[C@@H]3CC(=O)C4=CC(=O)CC[C@]4(C)[C@H]3CC[C@]12C  0.88 µg/mL (≈ 2.05 µM)
2. C=C(C)C(CC[C@@H](C)[C@H]1CC[C@H]2[C@@H]3CC(=O)C4=CC(=O)CC[C@]4(C)[C@H]3CC[C@]12C)OO (stereo partly specified)  0.88 µg/mL (≈ 2.05 µM)
3. C=CC(CC[C@@H](C)[C@H]1CC[C@H]2[C@@H]3C[C@@H](O)C4=CC(=O)CC[C@]4(C)[C@H]3CC[C@]12C)(OO)C(C)C (stereo partly specified)  0.64 µg/mL (≈ 1.4 µM)
4. C=C(C)C(CC[C@@H](C)[C@H]1CC[C@H]2[C@@H]3C[C@@H](O)C4=CC(=O)CC[C@]4(C)[C@H]3CC[C@]12C)OO (stereo partly specified)  0.58 µg/mL (≈ 1.35 µM)
5. C=C1CC[C@H](OO)C(=C)CCC2=C(C(C)C)C(=O)C[C@]2(C)CC1=O  0.56 µg/mL (≈ 1.68 µM)

system: LoVo; experiment: Cytotoxicity against human LoVo cells; format: functional; details: not given

In order of falling MIC:
1. COC(=O)C[C@@]1(C)C[C@@](C)(CC(C)CCCC/C=C/CC/C=C\c2ccccc2)OO1 (stereo partly specified)  1 µg/mL (≈ 2.33 µM)
2. CC(CC/C=C/CC/C=C/c1ccccc1)C[C@@]1(C)C[C@@](C)(CC(=O)O)OO1 (stereo partly specified) [EPIPLAKINIC ACID D]  0.1 µg/mL (≈ 0.259 µM)
3. CC(CC/C=C/CC/C=C/c1ccccc1)C[C@]1(C)C[C@@](C)(CC(=O)O)OO1 (stereo partly specified) [PLAKINIC ACID D]  0.001 µg/mL (≈ 0.00259 µM)

system: P388; experiment: Cytotoxicity against mouse P388 cells; format: functional, cell-based; details: Mus musculus, P388

In order of rising IC50:
1. CC/C=C/C(CC)CC(C)CC1(CC)C=C(CC)C(CC(=O)OC)OO1 (stereo unspecified)  0.055 µg/mL (≈ 0.15 µM)
2. C=C1C(=O)O[C@H]2C[C@](C)(O)CCC[C@](C)(OO)C/C=C/[C@@]3(C)O[C@H]3C[C@@H]12  0.1 µg/mL (≈ 0.273 µM)
3. C/C=C/C=C/CCCCCCCCCCCCC[C@]1(OC)C=C[C@@H](CC(=O)OC)OO1 [XESTIN A]  0.3 µg/mL (≈ 0.687 µM)
4. COC(=O)C[C@@]1(C)C[C@](C)(CC(C)CCCCCCCCc2ccccc2)OO1 (stereo partly specified) [EPIPLAKINIC ACID E]  2 µg/mL (≈ 4.94 µM)
5. C/C=C/C=C/CCCCCCCCCCCCC[C@@]1(OC)C=C[C@@H](CC(=O)OC)OO1 [XESTIN B]  3 µg/mL (≈ 6.87 µM)

same assay, conditions: Mus musculus, P388; read-out: ED50 (the source's name)

`C/C=C/C=C/CCCCCCCCCCC[C@]1(OC)C=C[C@H](CC(=O)OC)OO1` and `CCCCCCCC/C=C/C(=O)O[C@@H]1[C@@H](C)[C@@]2(O)[C@H]([C@@H]3C(C)(C)[C@]13OC(C)=O)[C@@H](OO)C(CO)=C[C@]1(O)C(=O)C(C)=C[C@@H]21` [OSTODIN] cannot be ordered by EC50: greater than 10 µg/mL for the first, no more than 4000 µg/mL for the second.

Going from `C=C(C)C(CC[C@@H](C)[C@H]1CC[C@H]2[C@@H]3C[C@@H](O)C4=CC(=O)CC[C@]4(C)[C@H]3CC[C@]12C)OO` (stereo partly specified) to `C=C(C)C(CC[C@@H](C)[C@H]1CC[C@H]2[C@@H]3CC(=O)C4=CC(=O)CC[C@]4(C)[C@H]3CC[C@]12C)OO` (stereo partly specified), the EC50 rises from 0.22 µg/mL (≈ 0.511 µM) to 0.53 µg/mL (≈ 1.24 µM) (2.4-fold).

`C=CC(CC[C@@H](C)[C@H]1CC[C@H]2[C@@H]3C[C@@H](O)C4=CC(=O)CC[C@]4(C)[C@H]3CC[C@]12C)(OO)C(C)C` (stereo partly specified) and `C[C@H](C/C=C/C(C)(C)OO)[C@H]1CC[C@H]2[C@@H]3CC(=O)C4=CC(=O)CC[C@]4(C)[C@H]3CC[C@]12C` are within 1.5-fold of each other in EC50: 0.4 µg/mL (≈ 0.872 µM) for the first, 0.53 µg/mL (≈ 1.24 µM) for the second.

Compound `C=C1CC[C@H](OO)C(=C)CCC2=C(C(C)C)C(=O)C[C@]2(C)CC1=O` has an EC50 of 0.052 µg/mL (≈ 0.156 µM).

system: KB; experiment: Cytotoxicity against human KB cells; format: functional, cell-based; details: Homo sapiens

In order of falling MIC:
1. COC(=O)C[C@@]1(C)C[C@@](C)(CC(C)CCCC/C=C/CC/C=C\c2ccccc2)OO1 (stereo partly specified)  0.1 µg/mL (≈ 0.233 µM)
2. CC(CC/C=C/CC/C=C/c1ccccc1)C[C@@]1(C)C[C@@](C)(CC(=O)O)OO1 (stereo partly specified) [EPIPLAKINIC ACID D]  0.1 µg/mL (≈ 0.259 µM)
3. CC(CC/C=C/CC/C=C/c1ccccc1)C[C@]1(C)C[C@@](C)(CC(=O)O)OO1 (stereo partly specified) [PLAKINIC ACID D]  0.001 µg/mL (≈ 0.00259 µM)

same assay, conditions: Homo sapiens, KB

For `CC(C)(O)/C=C/C[C@@](C)(O)[C@H]1CC[C@@](C)([C@H]2CC[C@H]([C@]3(C)CC[C@H]([C@](C)(O)C/C=C/C(C)(C)OO)O3)O2)O1`, the IC50 was 5.3 µg/mL (≈ 9.8 µM).

same assay, conditions: Homo sapiens, KB; read-out: ED50 (the source's name)

`CCCCCCCC/C=C/C(=O)O[C@@H]1[C@@H](C)[C@@]2(O)[C@H]([C@@H]3C(C)(C)[C@]13OC(C)=O)[C@@H](OO)C(CO)=C[C@]1(O)C(=O)C(C)=C[C@@H]21` [OSTODIN] and `C[C@H](C/C=C/C(C)(C)OO)[C@H]1CC[C@H]2[C@@H]3CC(=O)C4=CC(=O)CC[C@]4(C)[C@H]3CC[C@]12C` cannot be ordered by EC50: no more than 4000 µg/mL for the first, 1.15 µg/mL (≈ 2.68 µM) for the second.

`C=C(C)C(CC[C@@H](C)[C@H]1CC[C@H]2[C@@H]3C[C@@H](O)C4=CC(=O)CC[C@]4(C)[C@H]3CC[C@]12C)OO` (stereo partly specified) and `C=C(C)C(CC[C@@H](C)[C@H]1CC[C@H]2[C@@H]3CC(=O)C4=CC(=O)CC[C@]4(C)[C@H]3CC[C@]12C)OO` (stereo partly specified) are within 1.5-fold of each other in EC50: 0.79 µg/mL (≈ 1.83 µM) for the first, 1.15 µg/mL (≈ 2.68 µM) for the second.

First: C=CC(CC[C@@H](C)[C@H]1CC[C@H]2[C@@H]3C[C@@H](O)C4=CC(=O)CC[C@]4(C)[C@H]3CC[C@]12C)(OO)C(C)C (stereo partly specified)
Second: C=C1C(=O)O[C@H]2[C@H]1[C@H](OC(C)=O)CC(=C)[C@H](OO)CC[C@@]1(C)O[C@H]21 [PEROXYFEROLIDE]
The EC50 of the first is 6.2-fold higher: 1.8 µg/mL (≈ 3.92 µM) for the first, 0.29 µg/mL (≈ 0.857 µM) for the second.
